Reference: patent US11925178B1, “2′-alkyloxy-6′-phenyl[3,4′-bipyridine]-3′-carbonitrile as an insecticidal agent against Aphis craccivora” (priority 2023, dated 2024)
Values after ≈ are worked out from the molar mass of the structure shown. Where two headings read alike, the source gives them in different places.

Legend:
[1] = test system: adults of cowpea aphid (Aphis craccivora); experiment: Leaf dipping insecticidal bioassay, adults of cowpea aphid; type: in vivo; settings: 24 h; for LC50: Aphis craccivora, foliar; for Toxic ratio: Acetamiprid's LC50 / the compound's LC50
Description: (§1) The original batches of cowpea aphid insects were collected from pest's laboratory, Plant Protection Research Institute, Agricultural Research Center. The target compounds were screened for their insecticidal activity towards nymphs and adults of cowpea aphid.
(§2) The insecticidal activities of compounds 4 and 5 were measured by using leaf dipping method under the same reported laboratory conditions. Five concentrations of compound 4, 5 and 0.1% Tween-80 as a surfactant were used. Nearly the same size 30 nymphs and 30 adults of cowpea aphid insects were used for dipping for 10 second in every concentration of each compound (repeat three times). Insects which tested were allowed to stand to dry at room temperature for about half an hour. In the control experiment, the insects were dunked in distilled water and 0.1% tween-80 only. These applications were carried out at 5% relative humidity, and at a temperature of 25° C. After the used insect had dried, they were transferred to glass jars containing water. With a new binocular microscope, the aphid mortality was taken after 24 hrs of treatment. Any aphid that was unable to move was considered dead. The LC50 values used to evaluate the insecticidal activity were estimated by probit analysis.

[2] = test system: nymphs of cowpea aphid (Aphis craccivora); experiment: Leaf dipping insecticidal bioassay, nymphs of cowpea aphid; type: in vivo; settings: 24 h; for LC50: Aphis craccivora, foliar; for Toxic ratio: Acetamiprid's LC50 / the compound's LC50
Description: as §1, §2

[3] = adults, after 24 h of treatment, leaf dipping, probit analysis, read-out: LC50
[4] = nymphs, after 24 h of treatment, leaf dipping, probit analysis, read-out: LC50

Structure (SMILES)	LC50 [1, 3] [µg/mL]	Toxic ratio ([1]; adults)	LC50 [2, 4] [µg/mL]	Toxic ratio ([2]; nymphs)	LC50 [1] [µg/mL]	LC50 [2] [µg/mL]
COc1nc(-c2ccccc2)cc(-c2cccnc2)c1C#N [Compound 5, 2′-Methoxy-6′-phenyl[3,4′-bipyridine]-3′-carbonitrile]	1.4 (≈ 4.87 µM)	0.190	~0.0842 (≈ 0.293 µM)	0.0534	–	–
CCOc1nc(-c2ccccc2)cc(-c2cccnc2)c1C#N [Compound 4, 2′-Ethoxy-6′-phenyl[3,4′-bipyridine]-3′-carbonitrile]	~1.3 (≈ 4.32 µM)	0.205	~0.0781 (≈ 0.259 µM)	0.576	–	–
C/C(=N\C#N)N(C)Cc1ccc(Cl)nc1 [Acetamiprid, acetamiprid, reference compound]	–	1	–	1	0.267 (≈ 1.2 µM)	0.045 (≈ 0.202 µM)
